Results taken from ChEMBL document CHEMBL1201862, “PubChem BioAssay data set” (2004).
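Assay format: 96-well plates, 48-hour exposure. GI50 marks 50% less growth.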 Calls of active or inactive are those of the source. No stated cut-off is given here; in the data, active = GI50 up to about 1.1 µM and inactive = higher.

Legend:
Assay in all cases: growth of human tumour cells (NCI), 48 h
HCC 2998 = tested on: HCC 2998
SF-295 = tested on: SF-295
A549 = tested on: A549
CCRF-CEM = tested on: CCRF-CEM
NCI/ADR-RES = tested on: NCI/ADR-RES
HCT-15 = tested on: HCT-15
UACC-62 = tested on: UACC-62
CAKI-1 = tested on: CAKI-1
786-0 = tested on: 786-0
UO-31 = tested on: UO-31
NCI-H460 = tested on: NCI-H460
LOX IMVI = tested on: LOX IMVI
SF-268 = tested on: SF-268
OVCAR-3 = tested on: OVCAR-3
MDA-MB-231 = tested on: MDA-MB-231
OVCAR-4 = tested on: OVCAR-4
HOP-62 = tested on: HOP-62
SNB-75 = tested on: SNB-75
SF-539 = tested on: SF-539
SW-620 = tested on: SW-620

| SMILES | GI50 (HCC 2998) | GI50 (SF-295) | GI50 (A549) | GI50 (CCRF-CEM) | GI50 (NCI/ADR-RES) | GI50 (HCT-15) | GI50 (UACC-62) | GI50 (CAKI-1) | GI50 (786-0) | GI50 (UO-31) | GI50 (NCI-H460) | GI50 (LOX IMVI) | GI50 (SF-268) | GI50 (OVCAR-3) | GI50 (MDA-MB-231) | GI50 (OVCAR-4) | GI50 (HOP-62) | GI50 (SNB-75) | GI50 (SF-539) | GI50 (SW-620) |
| --- | --- | --- | --- | --- | --- | --- | --- | --- | --- | --- | --- | --- | --- | --- | --- | --- | --- | --- | --- | --- |
| CC(C)=C1C2CC3(C)CCC2(C)CCC13.CC1=CCC2C3(C)CCC2(C(C)C)C1C3 (centres undefined) | 23.1 µM (inactive) | 20 µM (inactive) | 19.7 µM (inactive) | 24.5 µM (inactive) | 18.4 µM (inactive) | 16.9 µM | 64.1 µM (inactive) | 17.3 µM (inactive) | 21.5 µM (inactive) | 26.7 µM (inactive) | 17.2 µM (inactive) | 28.8 µM (inactive) | 19.3 µM (inactive) | 16.5 µM (inactive) | 22 µM (inactive) | 26.1 µM (inactive) | 22.3 µM (inactive) | 23.2 µM (inactive) | 27.4 µM (inactive) | 23.7 µM (inactive) |
| C/C(=N\O)C1CC(CC(=O)O)C1(C)C (centres undefined) | 90.2 µM (inactive) | > 100 µM (inactive) | > 100 µM (inactive) | > 100 µM (inactive) | > 100 µM (inactive) | > 100 µM | > 100 µM (inactive) | > 100 µM (inactive) | > 100 µM (inactive) | > 100 µM (inactive) | > 100 µM (inactive) | > 100 µM (inactive) | > 100 µM (inactive) | 10.2 µM (inactive) | > 100 µM (inactive) | > 100 µM (inactive) | > 100 µM (inactive) | > 100 µM (inactive) | > 100 µM (inactive) | > 100 µM (inactive) |
| Nc1cc2[nH]c(=O)c3cc(Cl)ccc3c2cc1Cl | 23.7 µM (inactive) | 9.12 µM (inactive) | 12.9 µM (inactive) | 18.7 µM (inactive) | 13.3 µM (inactive) | 8.17 µM | 16.7 µM (inactive) | 8.38 µM (inactive) | 14.8 µM (inactive) | 10.2 µM (inactive) | 5 µM (inactive) | 11.1 µM (inactive) | 11.3 µM (inactive) | 12.4 µM (inactive) | 14.1 µM (inactive) | 31.9 µM (inactive) | 16.8 µM (inactive) | 15.5 µM (inactive) | 12.2 µM (inactive) | 8.55 µM (inactive) |
| CC1(C)[C@@H]2C[C@H]1C(Cc1ccccc1C[C@H]1c3cc(-c4ccccn4)ncc3[C@H]3C[C@@H]1C3(C)C)c1cc(-c3ccccn3)ncc12 (some centres undefined) | 0.982 µM (active) | 0.408 µM (active) | 0.371 µM (active) | 0.223 µM (active) | 1.91 µM (inactive) | 0.41 µM | 0.292 µM (active) | 0.568 µM (active) | 0.253 µM (active) | 0.312 µM (active) | 0.337 µM (active) | 0.361 µM (active) | 0.292 µM (active) | 0.387 µM (active) | 0.587 µM (active) | 0.716 µM (active) | 0.147 µM (active) | 0.679 µM (active) | 0.577 µM (active) | 0.6 µM (active) |
| C[Si](C)(C)OC1(C#N)c2ccccc2CCCC12CCCC2 (centres undefined) | 16.4 µM (inactive) | 34 µM (inactive) | 34.9 µM (inactive) | 19.6 µM (inactive) | 89.5 µM (inactive) | 39 µM | 80.2 µM (inactive) | > 100 µM (inactive) | 54.7 µM (inactive) | 99.5 µM (inactive) | 37.6 µM (inactive) | 22 µM (inactive) | 57.4 µM (inactive) | 46 µM (inactive) | 50.9 µM (inactive) | 80 µM (inactive) | 67.9 µM (inactive) | 49.8 µM (inactive) | 53.5 µM (inactive) | 44.9 µM (inactive) |
| CCN1C(=O)C(=Cc2ccc(-c3ccccc3)cc2)C(=O)N(CC)C1=S | > 100 µM (inactive) | > 100 µM (inactive) | > 100 µM (inactive) | 48.9 µM (inactive) | 34.7 µM (inactive) | > 100 µM | > 100 µM (inactive) | > 100 µM (inactive) | > 100 µM (inactive) | 79.4 µM (inactive) | > 100 µM (inactive) | > 100 µM (inactive) | > 100 µM (inactive) | > 100 µM (inactive) | > 100 µM (inactive) | > 100 µM (inactive) | > 100 µM (inactive) | 71.8 µM (inactive) | > 100 µM (inactive) | > 100 µM (inactive) |
| OC1COC2CC(Nc3ccccn3)OC12 (centres undefined) | > 100 µM (inactive) | > 100 µM (inactive) | > 100 µM (inactive) | > 100 µM (inactive) | 56.9 µM (inactive) | > 100 µM | > 100 µM (inactive) | > 100 µM (inactive) | > 100 µM (inactive) | > 100 µM (inactive) | > 100 µM (inactive) | > 100 µM (inactive) | > 100 µM (inactive) | > 100 µM (inactive) | > 100 µM (inactive) | > 100 µM (inactive) | > 100 µM (inactive) | > 100 µM (inactive) | > 100 µM (inactive) | > 100 µM (inactive) |
| COc1ccc(/C=C2\CC3C4CC=C5C[C@@H](O)CC[C@]5(C)C4CC[C@]3(C)\C2=N\O)cc1OC (some centres undefined) | 7.13 µM (inactive) | 4.13 µM (inactive) | 5.2 µM (inactive) | 18.2 µM (inactive) | 9.18 µM (inactive) | 4.32 µM | 10.3 µM (inactive) | 9.62 µM (inactive) | 5.71 µM (inactive) | 2.65 µM (inactive) | 6.61 µM (inactive) | 6.92 µM (inactive) | 18.1 µM (inactive) | 2.69 µM (inactive) | 16.2 µM (inactive) | 5.02 µM (inactive) | 18.2 µM (inactive) | 2.33 µM (inactive) | 7.26 µM (inactive) | 43.4 µM (inactive) |
| CC(=O)/N=C1/N(/C=C2\C(=O)Oc3ccccc3C2=O)C(=O)/C(=C/c2ccc(OC(C)=O)cc2)N1C | > 100 µM (inactive) | > 100 µM (inactive) | > 100 µM (inactive) | > 100 µM (inactive) | > 100 µM (inactive) | > 100 µM | > 100 µM (inactive) | > 100 µM (inactive) | > 100 µM (inactive) |  | > 100 µM (inactive) | > 100 µM (inactive) | > 100 µM (inactive) | 83.4 µM (inactive) | > 100 µM (inactive) | > 100 µM (inactive) | > 100 µM (inactive) | 88.9 µM (inactive) | > 100 µM (inactive) | > 100 µM (inactive) |
| COc1cccc(NC(=O)CC(=O)n2nc(-c3ccccc3)c(/N=N/c3ccc(Cl)cc3)c2-c2ccccc2)c1 | 17.2 µM (inactive) | 12.9 µM (inactive) | 26.1 µM (inactive) | 6.92 µM (inactive) | 19.5 µM (inactive) | 11.5 µM | 14.2 µM (inactive) | 36.6 µM (inactive) | 14.4 µM (inactive) | 10.2 µM (inactive) | 10.5 µM (inactive) | 13.2 µM (inactive) | 11.6 µM (inactive) | 22.1 µM (inactive) | 21.3 µM (inactive) | 36.4 µM (inactive) | 15.2 µM (inactive) | 42.8 µM (inactive) | 26.6 µM (inactive) | 36.1 µM (inactive) |
